# Results reported in patent US20250288624A1, “LONG-TERM STABILIZATION, FORMULATION AND TABLETING OF LIVE MICROBIAL CELLS” (priority 2022, published 2025).
# What was measured:
# E. meliloti = experiment: Heat shock screen of material library at 50° C. for 24 hours (Viability Score); assay type: cell-based, Ensifer meliloti
# Protocol: FIG. 18. E. meliloti stabilizers against 24 hours at 50° C. Extended data of FIG. 8. E. meliloti was mixed with the material library at the 1×concentration, freeze dried, and exposed to 50° C. for 24 hours. The viability score was characterized as in FIG. 8, and the data is ordered by the viability score of the comparison values when stored at 23° C.
# E. meliloti is currently used as a seed inoculant prior to planting, however, there remains a need for improved stability of the microbial product present during formulation, storage, and seed inoculation, particularly when it comes to tolerance to elevated temperatures above 40° C.^28,29. […] Functional symbiosis was measured as percent of seedlings that successfully formed nodules. […]
# (§1) The viability of the stored microbial-material combinations was determined by rehydrating in water, making 10-fold serial dilutions in PBS, plating onto the appropriate solid medium and quantifying the resulting colonies. […]
# (§2) To assign a Viability Score, using FIJI (imageJ), the 16-bit tiff plate images were programmatically separated into individual spot images, each spot was segmented, and several image attributes were measured (raw particle count, mean background value, mean segmented region value, segmented region area). […]
# Medicago truncatula A17 = experiment: Plant nodulation assay with stabilized E. meliloti; assay type: in vivo; conditions: E. meliloti formulated in the material, 50° C. shock for 24 hours, rehydrated, applied to seedlings
# Protocol: E. meliloti cultures were prepared as described above (see “High throughput pipeline for microbial material stabilizers”) and freeze-dried with the specified stabilizers following the 1-well plate method described in “Validation of two-material combinations”. The bagged, stabilized powders were exposed to 50° C. for 24 hours in a static incubator and then kept in the dark at 4° C. until used.
# Nodulation of Medicago truncatula A17 was assayed according to a protocol from Sadowsky et al. modified to growth in pouches^20-22. Specifically, M. truncatula A17 seeds (Noble Research Institute) were scarified by submerging in concentrated sulfuric acid for 8-9 minutes, washed 8× with sterile water, sterilized by submerging in 8.25% sodium hypochlorite for 90 seconds, washed 8× with sterile water, allowed to imbibe in sterile water for ˜1 hour, placed on 1% agar plates, sealed with parafilm and foil, vernalized at 4° C. in the dark for 5 days and germinated at 23° C. in the dark for 20 hours. […]
# The pouches were left undisturbed for 6 days, watered with 5 mL of 1/2×BNM as necessary and then inspected for nodules every other day. On day 12, the number of nodulated seedlings in each pouch was counted. The percent nodulated seedlings was calculated by dividing the number of nodulated seedlings by the total number of seedlings in the pouch.
# E. coli Nissle 1917 = experiment: Validation of two-material combinations at 37° C.; assay type: cell-based, Escherichia coli; conditions: in combination with melibiose, larger format
# Protocol: E. coli Nissle 1917 was prepared as described above (see “Vial-based viability validation”) with a few modifications: the flask culture was 2 L and incubated for 17-18 hours and the final cell suspension in PBS was set to an OD600 of 10-12.
# To freeze-dry, the cell suspension (12.5 mL) was mixed with the target material combination (37.5 mL), poured into rectangular 1-well plates, and placed into a tray freeze dryer with shelfs pre-cooled to −40° C. and on custom 0.25-inch aluminum pedestals to ensure heat transfer to the plates. Samples were dried as described above (see “High throughput pipeline”). […]
# The viability of the stored samples was assessed by hydrating the samples with 1 mL PBS, making 10-fold serial dilutions, spotting ˜1.5 uL of each dilution in triplicate onto LB agar in 1-well rectangular plates using a pin replicator (V&P Scientific, VP 407A), incubating at 37° C., and counting colonies on the strongest dilution that gives >1 colony per spot. Total CFU counts per sample were calculated by first dividing spot counts by the spotted volume and multiplying by the dilution factor and total rehydration volume, and then averaging across the three spotting replicates. Total CFU counts per mass were calculated by dividing the CFU counts per sample by the mass of the stored sample. Three independently stored replicate samples were analyzed as described. […]
# [1] = system: Escherichia coli Nissle 1917, Ensifer meliloti, Saccharomyces boulardii, Lactobacillus plantarum; experiment: High throughput pipeline for microbial material stabilizers (Viability Score after freeze-drying); assay type: cell-based; conditions: for viability score: after freeze-drying and 24 hours at room temperature, across the 4 microorganisms, score 0 to 1
# Protocol: It was hypothesized that a synthetic extremophile that could survive in the dry state could then be enhanced to survive additional environmental insults using material formulation techniques applied to the dry powder (e.g., coating)^9. Therefore, a library was screened, composed primarily of materials generally recognized as safe (GRAS) by the Food and Drug Administration (FDA) for their ability to protect microbes through freeze-drying and survival at room temperature for 24 hours (Table 2). This materials library was applied to 4 microorganisms (Escherichia coli Nissle 1917, Ensifer meliloti, Saccharomyces boulardii, Lactobacillus plantarum) that span a wide range of phylogenetic backgrounds, are technologically important and genetically tractable. Each microorganism was mixed with each of the 260 materials at two different concentrations to give 2,080 microbial-material formulations.
# Microbial strains were precultured overnight in 5 mL liquid medium at the appropriate conditions (see above). The overnight culture was diluted 1:1000 fold into three replicates of 125 mL of fresh liquid medium in a flask and cultured for 24 hours. The optical density (OD600) of each replicate culture was recorded (typically 2-2.5 for E. coli Nissle 1917, E. meliloti, L. plantarum and 5-6 for S. boulardii) and the cells were pelleted at 3220 rcf for 15 minutes. The cell pellets were then resuspended in PBS (E. meliloti, L. plantarum, S. boulardii) or spent medium (E. coli Nissle 1917) to a final OD600 of 2.25 and used immediately.
# The material library was prepared by mixing each material with ultrapure water to the specified concentration (1×, 5×) in Table 2. The material solutions were arrayed in sealed deep well plates and kept at −20° C. until needed. On the day of use, the material plates were thawed at room temperature, vortexed well and centrifuged briefly.
# To freeze-dry, each replicate microbial cell suspension (25 uL) was mixed with the arrayed materials (75 uL) in batch into flat-bottom 96-well plates using a liquid handling robot (Tecan, EVO 150). […]
# as §1, §2
compound,measurement,setting,value
OC[C@H]1O[C@H](O[C@H]2[C@H](O)[C@@H](O)C(O)O[C@@H]2CO)[C@H](O)[C@@H](O)[C@@H]1O (mixture of isomers) [maltose],material class in heat shock screen (synthetic thermotolerance),E. meliloti,optimal
same,nodulation of M. truncatula seedlings by stabilized E. meliloti,Medicago truncatula A17,successfully nodulate
Cn1c(=O)c2c(ncn2C)n(C)c1=O [caffeine],stability of two-material formulation at extended storage times,E. coli Nissle 1917,robust
OC[C@H]1O[C@H](OCC2O[C@@H](O)[C@H](O)[C@@H](O)[C@@H]2O)[C@H](O)[C@@H](O)[C@H]1O (stereo partly drawn) [melibiose],performance in stabilizer screen,[1]; E. coli Nissle 1917,best performing material
[Na+].[OH-] [sodium hydroxide],viability score,[1],0
O=S([O-])S(=O)(=O)[O-].[Na+].[Na+] [sodium metabisulfite],viability score,[1],0
OC[C@H]1O[C@@](CO)(O[C@H]2O[C@H](CO)[C@@H](O)[C@H](O)[C@H]2O)[C@@H](O)[C@@H]1O [sucrose],material class in heat shock screen (synthetic thermotolerance),E. meliloti,optimal
same,nodulation of M. truncatula seedlings by stabilized E. meliloti,Medicago truncatula A17,successfully nodulate
OC[C@H]1O[C@H](O[C@H]2O[C@H](CO)[C@@H](O)[C@H](O)[C@H]2O)[C@H](O)[C@@H](O)[C@@H]1O [trehalose],viability score,[1],measurable viability
